Columns and labels:
Format in all cases: cell-based
[1] = system: A. fumigatus GC 3092; experiment: Antifungal activity, microtiter broth dilution MIC; details: A. fumigatus GC 3092; RPMI 1640, 35° C., 24-48 hours
Experimental: (§1) The antifungal activity for the 1-oxorapamycins of this invention was confirmed in a standard pharmacological test procedure which measured the ability of the compound being evaluated to inhibit fungal growth. 1-Oxorapamycin (Compound I), 1-oxorapamycin 42-ester with 3-hydroxy-2-(hydroxymethyl)-2-methylpropionic acid (Compound II), and 42-O-(2-hydroxy)ethyl 1-oxorapamycin (Compound III) were evaluated as representative compounds of this invention. The procedure used and results obtained are briefly described below. A 96 U-bottom microtiter plate was filled (50 μl/well) with RPMI 1640. The compounds to be evaluated were placed in appropriate wells, and serial diluted in successive wells to provide 11 dilutions. The concentrations ranged from 64 through 0.06 μg/ml. An adjusted inoculum of fungi (50 μl) was added to each well and the plates were incubated at 35° C. for 24-48 hours. […] Nystatin and rapamycin were used for the purpose of comparison.

[2] = system: A. niger GC 3091; experiment: Antifungal activity, microtiter broth dilution MIC; details: RPMI 1640, 35° C., 24-48 hours
Experimental: as §1

[3] = system: A. niger GC 6591; experiment: Antifungal activity, microtiter broth dilution MIC; details: RPMI 1640, 35° C., 24-48 hours
Experimental: as §1

[4] = system: C. albicans GC 3064; experiment: Antifungal activity, microtiter broth dilution MIC; details: RPMI 1640, 35° C., 24-48 hours
Experimental: as §1

[5] = system: C. albicans GC 3065; experiment: Antifungal activity, microtiter broth dilution MIC; details: RPMI 1640, 35° C., 24-48 hours
Experimental: as §1

[6] = system: C. albicans GC 3066; experiment: Antifungal activity, microtiter broth dilution MIC; details: RPMI 1640, 35° C., 24-48 hours
Experimental: as §1

[7] = system: C. krussii GC 3067; experiment: Antifungal activity, microtiter broth dilution MIC; details: RPMI 1640, 35° C., 24-48 hours
Experimental: as §1

[8] = system: C. lusitaniae GC 3068; experiment: Antifungal activity, microtiter broth dilution MIC; details: RPMI 1640, 35° C., 24-48 hours
Experimental: as §1

[9] = system: C. parapsilosis GC 3074; experiment: Antifungal activity, microtiter broth dilution MIC; details: RPMI 1640, 35° C., 24-48 hours
Experimental: as §1

[10] = system: C. parapsilosis GC 3075; experiment: Antifungal activity, microtiter broth dilution MIC; details: RPMI 1640, 35° C., 24-48 hours
Experimental: as §1

[11] = system: C. parapsilosis GC 3076; experiment: Antifungal activity, microtiter broth dilution MIC; details: RPMI 1640, 35° C., 24-48 hours
Experimental: as §1

[12] = system: C. pseudotropicalis 3070; experiment: Antifungal activity, microtiter broth dilution MIC; details: RPMI 1640, 35° C., 24-48 hours
Experimental: as §1

[13] = system: C. tropicalis GC 3080; experiment: Antifungal activity, microtiter broth dilution MIC; details: RPMI 1640, 35° C., 24-48 hours
Experimental: as §1

[14] = system: C. tropicalis GC 3081; experiment: Antifungal activity, microtiter broth dilution MIC; details: RPMI 1640, 35° C., 24-48 hours
Experimental: as §1

[15] = system: A431 (vulva epidermoid origin) tumor cell line; experiment: Antineoplastic activity, tumor cell growth inhibition (sulforhodamine B); details: A431 cells, 48 hours
Description: (§2) Antineoplastic activity for the compounds of this invention was confirmed by evaluating the antineoplastic activity of representative compounds of this invention (Compounds I-III) against six tumor cell lines in vitro. Briefly, tumor cells from six cell lines were placed in wells of a 96 well microtiter plate. The following tumor cell lines were used: 3T3 (ovarian), 3T3/H2N (ovarian—resistant to cis-platin), A431 (vulva epidermoid origin), SW620 (colon), SKBR3 (breast), and MDA-435 (breast). The tumors cells were grown in the presence of serial dilutions of the compound to be evaluated for 48 hours, and cell growth determined using a colorimetric procedure (sulforhrodamine B). The inhibition of growth was calculated compared to the number of cells at the time of test compound addition. Results are expressed as an IC50 (μg/ml); N/A indicates the compound was not evaluated against that cell line. The following IC50s was listed on Table 2.

[16] = system: SKBR3 (breast) tumor cell line; experiment: as above; details: SKBR3 cells, 48 hours
Description: as §2

[17] = system: SW620 (colon) tumor cell line; experiment: as above; details: SW620 cells, 48 hours
Description: as §2

[18] = C. lusitaniae GC 3068, first listing (r26)

| SMILES | ANTIFUNGAL ACTIVITY (MIC) [1] [µg/mL] | ANTIFUNGAL ACTIVITY (MIC) [2] [µg/mL] | ANTIFUNGAL ACTIVITY (MIC) [3] [µg/mL] | ANTIFUNGAL ACTIVITY (MIC) [4] [µg/mL] | ANTIFUNGAL ACTIVITY (MIC) [5] [µg/mL] | ANTIFUNGAL ACTIVITY (MIC) [6] [µg/mL] | ANTIFUNGAL ACTIVITY (MIC) [7] [µg/mL] | ANTIFUNGAL ACTIVITY (MIC) [8, 18] [µg/mL] | ANTIFUNGAL ACTIVITY (MIC) ([8]; C. lusitaniae GC 3068, second listing (r28)) [µg/mL] | ANTIFUNGAL ACTIVITY (MIC) [9] [µg/mL] | ANTIFUNGAL ACTIVITY (MIC) [10] [µg/mL] | ANTIFUNGAL ACTIVITY (MIC) [11] [µg/mL] | ANTIFUNGAL ACTIVITY (MIC) [12] [µg/mL] | ANTIFUNGAL ACTIVITY (MIC) [13] [µg/mL] | ANTIFUNGAL ACTIVITY (MIC) [14] [µg/mL] | Antineoplastic Activity (IC50) [15] [µg/mL] | Antineoplastic Activity (IC50) [16] [µg/mL] | Antineoplastic Activity (IC50) [17] [µg/mL] |
| --- | --- | --- | --- | --- | --- | --- | --- | --- | --- | --- | --- | --- | --- | --- | --- | --- | --- | --- |
| C[C@@H]1[C@H](O)[C@@H](C)/C=C/C=C/CC/C=C/C=C/C=C/C=C/C(O[C@H]2O[C@H](C)[C@@H](O)[C@H](N)[C@@H]2O)CC2O[C@](O)(CC(O)C(O)CCC(O)CC(O)CC(O)CC(=O)O[C@H]1C)CC(O)C2C(=O)O (some centres unmarked) [Nystatin, reference compound] | 1 | 2 | 2 | 1 | 1 | 1 | 1 | 0.50 | 1 | 1 | 0.50 | 0.50 | 0.50 | 0.25 | 1 |  |  |  |
| CO[C@H]1CC2CC[C@@H](C)[C@@](O)(O2)C(=O)C(=O)N2CCCC[C@H]2C(=O)O[C@H]([C@H](C)CC2CC[C@@H](OCCO)[C@H](OC)C2)CC(=O)[C@H](C)/C=C(\C)[C@@H](O)[C@@H](OC)C(=O)[C@H](C)C[C@H](C)C(=O)C/C=C/C=C/1C (some centres unmarked) [Compound III, 42-O-(2-Hydroxy)ethyl 1-oxorapamycin] | 2 | >32 | >32 | 4 | 2 | 2 | >32 | 2 |  | 2 | 2 | 2 | 2 | 2 | 2 | 0.48 | 0.038 | 1.9 |

Reference: patent publication US6399625B1, “1-oxorapamycins” (Wyeth, priority 2000, dated 2002)
